Laboratory results as given in US5491155A, “Substituted thiadiazoles, compositions containing them and their use as antimicrobial and marine antifouling agents” (The Dow Chemical Company, priority 1994, dated 1996).
≈ marks a conversion by molar mass, not a printed value. Read-outs that look alike come from different tables or passages of the source.

Key:
[1] = test system: Trichoderma viride; experiment: MIC in malt yeast agar, Trichoderma viride; format: cell-based, Trichoderma viride (ATCC 8678); conditions: Tv; malt yeast agar; 30° C.; 72 hours for fungi; read-out: Minimum Inhibitory Concentration (MIC)
Method: (§1) The minimum inhibitory concentration (MIC) for the compounds listed in Table I is determined for bacteria, using nutrient agar, and 7 yeast and fungi, using malt yeast agar. A one percent solution of the test compound is prepared in a mixture of acetone and water.
(§2) Malt yeast agar is prepared by adding 3 g yeast extract and 45 g malt agar per liter of deionized water. The specific agar is dispensed in 30 mL aliquots into 25×200 mm test tubes, capped and autoclaved for 15 minutes at 115° C.
(§3) The test tubes containing the agar are cooled in a water bath until the temperature of the agar is 48° C. Then, an appropriate amount of the one percent solution of the test compound is added (except in the controls where no compound is added) to the respective test tubes so that the final concentrations are 500, 250, 100, 50, 25, 10, 2.5, 1.0 and zero parts per million of the test compound in the agar, thus having a known concentration of test compound dispersed therein. The contents of the test tubes are then transferred to respective petri plates. After drying for 24 hours, the petri plates containing nutrient agar are inoculated with bacteria and those containing malt yeast agar are inoculated with yeast and fungi.
(§4) The inoculation with the yeast and fungi is accomplished as follows. Cultures of yeast and fungi are incubated for seven days on malt yeast agar at 30° C. These cultures are used to prepare suspensions by the following procedure. A suspension of each organism is prepared by adding 10 mL of sterile saline and 10 microliters of octylphenoxy polyethoxy ethanol to the agar slant of yeast or fungi. The sterile saline/octylphenoxy polyethoxy ethanol solution is then agitated with a sterile swab to suspend the microorganism grown on the slant. Each resulting suspension is diluted into sterile saline (1 part suspension: 9 parts sterile saline). Aliquots of these dilutions are placed in individual wells of Steer's Replicator and petri plates inoculated as previously described. The petri plates are incubated at 30° C. and read after 48 hours for yeast and 72 hours for fungi.
(§5) Table II lists the bacteria, yeast and fungi used in the MIC test described above along with their respective American Type Culture Collection (ATCC) identification numbers.
(§6) In Tables III and IV, the MIC values of the compounds described in Table I as compared to the MIC of a standard commercial preservative (with 1-(3-chloroalkyl)-3,5,7-triaza-1-azoniaadamantane chloride as the active agent and referred to in Tables III and IV as "STANDARD I") are set forth for the bacteria organisms and yeast/fungi organisms which are listed in Table II.

[2] = test system: Proteus vulgaris; experiment: MIC in nutrient agar, Proteus vulgaris; format: cell-based, Proteus vulgaris (ATCC 881); conditions: Pv, 48 hours, read-out: Minimum Inhibitory Concentration (MIC)
Method: as §1
(§7) Nutrient agar is prepared at pH 6.8, representing a neutral medium, and at pH 8.2, representing an alkaline medium. The nutrient agars are prepared by adding 23 g of nutrient agar to one-liter of deionized water. In addition, the alkaline medium is prepared by adjusting a 0.04M solution of N-(tris-(hydroxymethyl)methyl)glycine buffered deionized water with concentrated sodium hydroxide to a pH of 8.5.
as §3
(§8) The inoculation with bacteria is accomplished by using the following procedure. Twenty-four hour-cultures of each of the bacteria are prepared by incubating the respective bacteria in tubes containing nutrient broth for 24 hours at 30° C. in a shaker. Dilutions of each of the 24 hour-cultures are made so that nine separate suspensions (one for each of the nine test bacteria) are made, each containing 10^8 colony forming units (CFU) per mL of suspension of a particular bacteria. Aliquots of 0.3 mL of each of the bacterial suspensions are used to fill the individual wells of Steer's Replicator. For each microbial suspension, 0.3 mL was used to fill three wells (i.e., three wells of 0.3 mL each) so that for the nine different bacteria, 27 wells are filled. The Steer's Replicator is then used to inoculate both the neutral and alkaline pH nutrient agar petri plates.
(§9) The inoculated petri plates are incubated at 30° C. for 48 hours and then read to determine if the test compound which is incorporated into the agar prevented growth of the respective bacteria.
as §5, §6

[3] = test system: Saccharomyces cerevisiae; experiment: MIC in malt yeast agar, Saccharomyces cerevisiae; format: cell-based, Saccharomyces cerevisiae (ATCC 4105); conditions: Sc, malt yeast agar, 30° C., 48 hours for yeast, read-out: Minimum Inhibitory Concentration (MIC)
Method: as §1, §2, §3, §4, §5, §6

[4] = test system: Bacillus subtilis; experiment: MIC in nutrient agar, Bacillus subtilis; format: cell-based, Bacillus subtilis (ATCC 8473); conditions: Bs, 48 hours, read-out: Minimum Inhibitory Concentration (MIC)
Method: as §1, §7, §3, §8, §9, §5, §6

[5] = test system: Aureobasidium pullulan; experiment: MIC in malt yeast agar, Aureobasidium pullulan; format: cell-based, Aureobasidium pullulan (ATCC 16622); conditions: Ap; malt yeast agar; 30° C.; 72 hours for fungi; read-out: Minimum Inhibitory Concentration (MIC)
Method: as §1, §2, §3, §4, §5, §6

[6] = test system: Pseudomonas aeruginosa; experiment: MIC in nutrient agar, Pseudomonas aeruginosa (Pa); format: cell-based, Pseudomonas aeruginosa (ATCC 10145); conditions: Pa, 48 hours, read-out: Minimum Inhibitory Concentration (MIC)
Method: as §1, §7, §3, §8, §9, §5, §6

[7] = test system: Aspergillus niger; experiment: MIC in malt yeast agar, Aspergillus niger; format: cell-based, Aspergillus niger (ATCC 16404); conditions: An; malt yeast agar; 30° C.; 72 hours for fungi; read-out: Minimum Inhibitory Concentration (MIC)
Method: as §1, §2, §3, §4, §5, §6

[8] = test system: Candida albicans; experiment: MIC in malt yeast agar, Candida albicans; format: cell-based, Candida albicans (ATCC 10231); conditions: Ca; malt yeast agar; 30° C.; 48 hours for yeast; read-out: Minimum Inhibitory Concentration (MIC)
Method: as §1, §2, §3, §4, §5, §6

[9] = test system: Fusarium oxysporum; experiment: MIC in malt yeast agar, Fusarium oxysporum; format: cell-based, Fusarium oxysporum (ATCC 48112); conditions: Fo; malt yeast agar; 30° C.; 72 hours for fungi; read-out: Minimum Inhibitory Concentration (MIC)
Method: as §1, §2, §3, §4, §5, §6

[10] = test system: Staphylococcus aureus; experiment: MIC in nutrient agar, Staphylococcus aureus; format: cell-based, Staphylococcus aureus (ATCC 6538); conditions: Sa, 48 hours, read-out: Minimum Inhibitory Concentration (MIC)
Method: as §1, §7, §3, §8, §9, §5, §6

[11] = test system: Klebsiella pneumonias; experiment: MIC in nutrient agar, Klebsiella pneumonias; format: cell-based, Klebsiella pneumonias (ATCC 8308); conditions: Kp, 48 hours, read-out: Minimum Inhibitory Concentration (MIC)
Method: as §1, §7, §3, §8, §9, §5, §6

[12] = test system: Pseudomonas aeruginosa (PRD-10); experiment: MIC in nutrient agar, Pseudomonas aeruginosa (PRD-10); format: cell-based, Pseudomonas aeruginosa (ATCC 15442); conditions: PRD, 48 hours, read-out: Minimum Inhibitory Concentration (MIC)
Method: as §1, §7, §3, §8, §9, §5, §6

[13] = test system: Escherichia coli; experiment: MIC in nutrient agar, Escherichia coli; format: cell-based, Escherichia coli (ATCC 11229); conditions: Ec, 48 hours, read-out: Minimum Inhibitory Concentration (MIC)
Method: as §1, §7, §3, §8, §9, §5, §6

[14] = test system: Salmonella choleraesuis; experiment: MIC in nutrient agar, Salmonella choleraesuis; format: cell-based, Salmonella choleraesuis (ATCC 10708); conditions: Salmonella enterica, Sc, 48 hours, read-out: Minimum Inhibitory Concentration (MIC)
Method: as §1, §7, §3, §8, §9, §5, §6

[15] = test system: Penicillium chrysogenum; experiment: MIC in malt yeast agar, Penicillium chrysogenum; format: cell-based, Penicillium chrysogenum (ATCC 9480); conditions: Pc; malt yeast agar; 30° C.; 72 hours for fungi; read-out: Minimum Inhibitory Concentration (MIC)
Method: as §1, §2, §3, §4, §5, §6

[16] = test system: Enterobacter aerogenes; experiment: MIC in nutrient agar, Enterobacter aerogenes; format: cell-based, Enterobacter aerogenes (ATCC 13048); conditions: Klebsiella aerogenes, Ea, 30° C., 48 hours, read-out: Minimum Inhibitory Concentration (MIC)
Method: as §1, §7, §3, §8, §9, §5, §6

| MIC [1] | MIC ([2]; pH 6.8, 30° C.) | MIC ([2]; pH 8.2, 30° C.) | MIC [3] | MIC ([4]; pH 6.8, 30° C.) | MIC ([4]; pH 8.2, 30° C.) | MIC [5] | MIC ([6]; pH 6.8, 30° C.) | MIC ([6]; pH 8.2, 30° C.) | MIC [7] | MIC [8] | MIC [9] | MIC ([10]; pH 6.8, 30° C.) | MIC ([10]; pH 8.2, 30° C.) | MIC ([11]; pH 6.8, 30° C.) | MIC ([12]; pH 6.8, 30° C.) | MIC ([13]; pH 6.8, 30° C.) | MIC [15] | MIC ([16]; pH 6.8) | SMILES | MIC ([14]; pH 6.8, 30° C.) | other results |
| --- | --- | --- | --- | --- | --- | --- | --- | --- | --- | --- | --- | --- | --- | --- | --- | --- | --- | --- | --- | --- | --- |
| 25 µg/mL (≈ 120 µM) | < 10 µg/mL | 25 µg/mL (≈ 120 µM) | < 10 µg/mL | < 10 µg/mL | 25 µg/mL (≈ 120 µM) | < 10 µg/mL | 50 µg/mL (≈ 241 µM) | 50 µg/mL (≈ 241 µM) | < 10 µg/mL | < 10 µg/mL | < 10 µg/mL | 25 µg/mL (≈ 120 µM) | 25 µg/mL (≈ 120 µM) | 25 µg/mL (≈ 120 µM) | 100 µg/mL (≈ 482 µM) | 25 µg/mL (≈ 120 µM) | < 10 µg/mL | 50 µg/mL (≈ 241 µM) | N#CSCOc1nsnc1Cl [Example 6, 4-Chloro-3-thiocyanato-methyloxo-1,2,5-thiadiazole] | < 10 µg/mL | MIC ([11]; pH 8.2, 30° C.): 25 µg/mL (≈ 120 µM); MIC ([12]; pH 8.2, 30° C.): 100 µg/mL (≈ 482 µM); MIC ([13]; pH 8.2, 30° C.): 25 µg/mL (≈ 120 µM); MIC ([14]; pH 8.2, 30° C.): 25 µg/mL (≈ 120 µM); MIC ([16]; pH 8.2): 50 µg/mL (≈ 241 µM) |
| 25 µg/mL (≈ 123 µM) | < 10 µg/mL |  | < 10 µg/mL | < 10 µg/mL |  | < 10 µg/mL | < 10 µg/mL |  | < 10 µg/mL | 25 µg/mL (≈ 123 µM) | < 10 µg/mL | < 10 µg/mL |  | < 10 µg/mL | 25 µg/mL (≈ 123 µM) | 25 µg/mL (≈ 123 µM) | < 10 µg/mL | 25 µg/mL (≈ 123 µM) | COc1nsnc1OCSC#N [Example 7, 4-Methoxy-3-thiocyanato-methyloxo-1,2,5-thiadiazole] | 25 µg/mL (≈ 123 µM) |  |
| 50 µg/mL (≈ 192 µM) | 25 µg/mL (≈ 96 µM) | 25 µg/mL (≈ 96 µM) | 25 µg/mL (≈ 96 µM) | < 10 µg/mL | 25 µg/mL (≈ 96 µM) | < 10 µg/mL | 250 µg/mL (≈ 960 µM) | 100 µg/mL (≈ 384 µM) | < 10 µg/mL | 50 µg/mL (≈ 192 µM) | 25 µg/mL (≈ 96 µM) | 25 µg/mL (≈ 96 µM) | 25 µg/mL (≈ 96 µM) | 100 µg/mL (≈ 384 µM) | 500 µg/mL (≈ 1920 µM) | 50 µg/mL (≈ 192 µM) | < 10 µg/mL | 250 µg/mL (≈ 960 µM) | N#CSCOc1nsnc1OCSC#N [Example 8, 3,4-Bis(thiocyanato-methyloxo)-1,2,5-thiadiazole] | 25 µg/mL (≈ 96 µM) | MIC ([11]; pH 8.2, 30° C.): 50 µg/mL (≈ 192 µM); MIC ([12]; pH 8.2, 30° C.): 250 µg/mL (≈ 960 µM); MIC ([13]; pH 8.2, 30° C.): 100 µg/mL (≈ 384 µM); MIC ([14]; pH 8.2, 30° C.): 50 µg/mL (≈ 192 µM); MIC ([16]; pH 8.2): 250 µg/mL (≈ 960 µM) |
